For two molecules, IC50 and Km results are on record in paper PMC2646200 (Biochemistry, 2008).

The target in data set [1] is PDE8A1 (Homo sapiens, UniProt O60658). Kind of data set: 3H-cAMP hydrolysis assay, IC50. The data set is classed as biochemical.
Data set [2] deals with PDE8A1 (Homo sapiens, UniProt O60658, Y748F). Kind of data set: 3H-cAMP hydrolysis assay, IC50. The data set is classed as biochemical.
Substrate in the data set “purified protein”: [H][C@@]12COP(=O)(O)O[C@@]1([H])[C@@H](O)[C@H](n1cnc3c(=O)[nH]c(N)nc31)O2
Kind of data set: purified protein. The following applies: Mn2+ ([…] MnCl2).

Chain of PDE8A1 (Homo sapiens, UniProt O60658, Y748F) (O60658 480-820 Y748F): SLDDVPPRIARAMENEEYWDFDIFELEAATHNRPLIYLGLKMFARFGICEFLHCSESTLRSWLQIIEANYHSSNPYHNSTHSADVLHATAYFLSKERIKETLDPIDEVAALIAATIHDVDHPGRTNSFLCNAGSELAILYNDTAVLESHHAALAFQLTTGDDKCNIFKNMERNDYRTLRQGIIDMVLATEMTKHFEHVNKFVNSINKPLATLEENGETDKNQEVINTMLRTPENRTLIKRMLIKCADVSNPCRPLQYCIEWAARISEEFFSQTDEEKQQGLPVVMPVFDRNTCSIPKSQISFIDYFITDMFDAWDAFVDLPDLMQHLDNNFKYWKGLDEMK

For `OCCN(CCO)c1nc(N2CCCCC2)c2nc(N(CCO)CCO)nc(N3CCCCC3)c2n1` [dipyridamole], the IC50 (commonly the concentration needed to halve the response being measured) turned out to be 6 ± 0.4 µM on PDE8A1 [1] and 4.1 ± 0.4 µM on PDE8A1 [2].

B1: PDE8A1 (Homo sapiens) (protein)
chain: SLDDVPPRIARAMENEEYWDFDIFELEAATHNRPLIYLGLKMFARFGICEFLHCSESTLRSWLQIIEANYHSSNPYHNSTHSADVLHATAYFLSKERIKETLDPIDEVAALIAATIHDVDHPGRTNSFLCNAGSELAILYNDTAVLESHHAALAFQLTTGDDKCNIFKNMERNDYRTLRQGIIDMVLATEMTKHFEHVNKFVNSINKPLATLEENGETDKNQEVINTMLRTPENRTLIKRMLIKCADVSNPCRPLQYCIEWAARISEEYFSQTDEEKQQGLPVVMPVFDRNTCSIPKSQISFIDYFITDMFDAWDAFVDLPDLMQHLDNNFKYWKGLDEMK
For the molecule B1, the Km (commonly the substrate concentration at which the rate is half of its maximum) in the data set “purified protein” is 1600 ± 100 µM.
